#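 Interpolation was linear, between the two tested concentrations surrounding the appropriate level; five concentrations were tested over 48 hours in 96-well plates. TGI is the concentration that stops growth completely.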
# Legend:
# Test in all cases: NCI tumour cell line growth inhibition, 48 h
# RXF 393 renal = test system: RXF 393 renal
# MCF7 breast = test system: MCF7 breast
# SK-MEL-5 melanoma = test system: SK-MEL-5 melanoma
# HCC-2998 colon = test system: HCC-2998 colon
# MALME-3M melanoma = test system: MALME-3M melanoma
# LOX IMVI melanoma = test system: LOX IMVI melanoma
# HCT-15 colon = test system: HCT-15 colon
# RPMI-8226 leukemia = test system: RPMI-8226 leukemia
# OVCAR-4 ovarian = test system: OVCAR-4 ovarian
# K-562 leukemia = test system: K-562 leukemia
# KM12 colon = test system: KM12 colon
# SK-OV-3 ovarian = test system: SK-OV-3 ovarian
# NCI-H23 lung = test system: NCI-H23 lung
# M19-MEL melanoma = test system: M19-MEL melanoma
# SNB-78 CNS = test system: SNB-78 CNS
# P388/ADR leukemia = test system: P388/ADR leukemia
# EKVX NSCLC = test system: EKVX NSCLC
# HOP-62 NSCLC = test system: HOP-62 NSCLC
# SNB-19 CNS = test system: SNB-19 CNS
# SNB-75 CNS = test system: SNB-75 CNS
# CAKI-1 renal = test system: CAKI-1 renal
# A549 NSCLC = test system: A549 NSCLC
# DLD-1 colon = test system: DLD-1 colon
# A498 renal = test system: A498 renal
# HCT-116 colon = test system: HCT-116 colon
# UACC-62 melanoma = test system: UACC-62 melanoma
# SF-295 CNS = test system: SF-295 CNS
# UACC-257 melanoma = test system: UACC-257 melanoma
# OVCAR-8 ovarian = test system: OVCAR-8 ovarian
# HT29 colon = test system: HT29 colon
# SF-268 CNS = test system: SF-268 CNS
# HOP-92 NSCLC = test system: HOP-92 NSCLC
# SN12C renal = test system: SN12C renal
# COLO 205 colon = test system: COLO 205 colon
# SN12K1 renal = test system: SN12K1 renal
# SW-620 colon = test system: SW-620 colon
# XF 498 CNS = test system: XF 498 CNS
# UO-31 renal = test system: UO-31 renal
# KM20L2 colon = test system: KM20L2 colon
# MOLT-4 leukemia = test system: MOLT-4 leukemia
# SF-539 CNS = test system: SF-539 CNS
# NCI/ADR-RES ovarian = test system: NCI/ADR-RES ovarian
# NCI-H522 lung = test system: NCI-H522 lung
# NCI-H226 lung = test system: NCI-H226 lung
# HL-60(TB) leukemia = test system: HL-60(TB) leukemia
# U251 CNS = test system: U251 CNS
# IGROV1 ovarian = test system: IGROV1 ovarian
# P388 leukemia = test system: P388 leukemia
# SK-MEL-2 melanoma = test system: SK-MEL-2 melanoma
# OVCAR-3 ovarian = test system: OVCAR-3 ovarian
# CCRF-CEM leukemia = test system: CCRF-CEM leukemia
# DMS 273 small cell lung = test system: DMS 273 small cell lung
# SK-MEL-28 melanoma = test system: SK-MEL-28 melanoma
# NCI-H460 lung = test system: NCI-H460 lung
# OVCAR-5 ovarian = test system: OVCAR-5 ovarian
compound,measurement,setting,value
COc1ccc2c(c1O)-c1cc(O)cc3c1[C@@H](C2)N(C)CC3,TGI,RXF 393 renal,119 µM
same,TGI,MCF7 breast,129 µM
same,TGI,SK-MEL-5 melanoma,122 µM
same,TGI,HCC-2998 colon,139 µM
same,TGI,MALME-3M melanoma,126 µM
same,TGI,LOX IMVI melanoma,142 µM
same,TGI,HCT-15 colon,140 µM
same,TGI,RPMI-8226 leukemia,286 µM
same,TGI,OVCAR-4 ovarian,125 µM
same,TGI,K-562 leukemia,241 µM
same,TGI,KM12 colon,114 µM
same,TGI,SK-OV-3 ovarian,289 µM
same,TGI,NCI-H23 lung,257 µM
same,TGI,M19-MEL melanoma,128 µM
same,TGI,SNB-78 CNS,212 µM
same,TGI,P388/ADR leukemia,180 µM
same,TGI,EKVX NSCLC,187 µM
same,TGI,HOP-62 NSCLC,106 µM
same,TGI,SNB-19 CNS,378 µM
same,TGI,SNB-75 CNS,124 µM
same,TGI,CAKI-1 renal,142 µM
same,TGI,A549 NSCLC,138 µM
same,TGI,DLD-1 colon,121 µM
same,TGI,A498 renal,125 µM
same,TGI,HCT-116 colon,49.9 µM
same,TGI,UACC-62 melanoma,136 µM
same,TGI,SF-295 CNS,145 µM
same,TGI,UACC-257 melanoma,138 µM
same,TGI,OVCAR-8 ovarian,8.27 µM
same,TGI,HT29 colon,223 µM
same,TGI,SF-268 CNS,229 µM
same,TGI,HOP-92 NSCLC,73.6 µM
same,TGI,SN12C renal,183 µM
same,TGI,COLO 205 colon,106 µM
same,TGI,SN12K1 renal,122 µM
same,TGI,SW-620 colon,145 µM
same,TGI,XF 498 CNS,160 µM
same,TGI,UO-31 renal,103 µM
same,TGI,KM20L2 colon,31.2 µM
same,TGI,MOLT-4 leukemia,211 µM
same,TGI,SF-539 CNS,153 µM
same,TGI,NCI/ADR-RES ovarian,227 µM
same,TGI,NCI-H522 lung,255 µM
same,TGI,NCI-H226 lung,108 µM
same,TGI,HL-60(TB) leukemia,191 µM
same,TGI,U251 CNS,250 µM
same,TGI,IGROV1 ovarian,139 µM
same,TGI,P388 leukemia,106 µM
same,TGI,SK-MEL-2 melanoma,43.4 µM
same,TGI,OVCAR-3 ovarian,84.2 µM
same,TGI,CCRF-CEM leukemia,262 µM
same,TGI,DMS 273 small cell lung,127 µM
same,TGI,SK-MEL-28 melanoma,157 µM
same,TGI,NCI-H460 lung,150 µM
same,TGI,OVCAR-5 ovarian,63.3 µM
